Results on five molecules are retold here after US20110213000A1, “N-(2-THIAZOLYL)-AMIDE DERIVATIVES FOR THE TREATMENT OF OBESITY, DIABETES AND CARDIOVASCULAR DISEASES” (ZELTIA, S.A., priority 2007, published 2011).

This assay concerns adiponectin promoter. Put plainly: Luciferase reporter screening of promoter transcriptional activity in stable C2C12 cell lines. Type of assay: cell-based, mouse. Particulars: for activation ratio: C2C12 stable line, luciferase, vs vehicle; for concentration at which the greatest transactivation was achieved: dose-response curve of the commercial activator on the target promoter. From the text: The following protocol has been followed for the purpose of analyzing the potential therapeutic activity against obesity, type 2 diabetes mellitus and atherosclerosis (ODA metabolic diseases) of the compounds 1-5: • generating cell lines which have stably integrated human promoters of key genes in the development of ODA diseases; • amplifying the human promoter sequence of the target genes starting from commercial human genomic DNA; • cloning the promoter into a suitable vector which allows knowing the transcriptional activity of the promoter sequence, using the luciferase gene as a reporter gene; • generating stable cell lines for each of the promoters cloned into the reporter vectors; • carrying out the screening test with the compounds of the invention on the stable cell lines; • suitably validating the effect obtained with a certain compound which can modify the transcriptional activity of the promoter.
The selected cell line is C2C12, corresponding to myoblasts from mouse muscle tissue.
The luciferase activity is measured according to the following protocol: • a) 50000 and […] cells/well (and in duplicate) are seeded in a P24 plate. • b) After approximately 24 hours, the medium is removed from the cells and each well is washed with PBS 1× (because DMEM interferes in the measurement of the activity of the reporter gene) • c) 100 μl of luciferase developing reagent are added in each cell (Bright-Glo™ Luciferase Assay system—Promega). This reagent carries the reporter gene substrate and luminescence is generated as the product of the enzymatic reaction. The cells which have acquired the reporter gene, and therefore the target promoter, will be luminescent upon being in the presence of said substrate. To record the measurement of luciferase activity, the plate is shaken for 30 seconds right after adding the developing reagent and after 2 minutes, the volume is collected and transferred to a 96-well plate (P96), which can be read in an illuminometer. • d) The suitable luminescence program is selected, such that the reading lasts 5 seconds per well, and the arbitrary luminescence units are recorded for each obtained clone or, in other words, for each stable cell line.
Carrying out the screening test: The clones used in the screening are: C2C12 Adipo (adiponectin promoter), C2C12 UCP3 (UCP3 promoter), C2C12 AdR1 (adiponectin receptor 1 promoter) and C2C12 Nmu (neuromedin promoter).
Before any screening experiment, the suitable number of cells for carrying out such experiments must first be provided. To that end, 2 T75 are usually seeded (with approximately 1×10^6 cells in each bottle), such that after four days, the cells have reached confluence and are ready for the screening protocol detailed below to be carried out. • 1. Day 1: 30000 cells per well are seeded in white P96 plates; these plates allow amplifying the luminescence signal and improving the reading. The cells are grown in 100 μl of hygromycin-free medium. • 2. Day 2: 24 hours after the seeding, the cells are stimulated with compounds 1-5. […]
[drawing 16] • ? In the indicated positions, the baseline transcriptional activity of the promoters to be studied is recorded in the presence of the medium in which compounds 1-5 (vehicle) are dissolved. • ? In the indicated positions, the transcriptional activity of the promoters to be studied is recorded in the presence of a known commercial activator of the target promoter. […]
For orientation: Reporter assays use an easily measured gene product as a stand-in for the process of interest.

Setting [1] is: 0.5 μM, 48 hours after stimulation.
The mark [2] stands for this setting: 1 μM, 48 hours after stimulation.
Setting [3] is: 5 μM, 48 hours after stimulation.
Where [4] appears, read: 10 μM, 48 hours after stimulation.
[5] abbreviates: 25 μM, 48 hours after stimulation.
The mark [6] stands for this setting: 20 μM, 48 hours after stimulation.

For the molecule `O=C(Nc1nccs1)c1ccccn1` [Compound 3, pyridin-2-carboxylic acid thiazol-2-yl-amide], the activation ratio was 1.40 under setting [1]; 1.71 under setting [2]; 3.23 under setting [3]; 3.82 under setting [4]; 3.73 under setting [5]; 3.20 (50 μM, dose-response curve). Also, the activation ratio is, setting by setting: (100 μM, dose-response curve) 1.61; (200 μM, dose-response curve) 0.75.
As for `CN(CCOc1ccc(CC2SC(=O)NC2=O)cc1)c1ccccn1` (centres unmarked) [Rosiglitazone], the “concentration at which the greatest transactivation was achieved” value (from here on “concentration”) amounted to 20 µM.
In the case of `O=c1c(-c2ccc(O)cc2)coc2cc(O)ccc12` [Daidzein], the “concentration” value is 20 µM. Moreover, the activation ratio under setting [2] is on record as 1.68. In addition, under setting [3], the activation ratio turned out to be 3.03. Moreover, the activation ratio under setting [4] is 3.76. Moreover, under setting [6], the activation ratio is recorded as 4.04. Also, the activation ratio (50 μM, dose-response curve) was determined as 4.05. Moreover, the activation ratio (100 μM, dose-response curve) came to 3.71.
Regarding `O=c1c(-c2ccc(O)cc2)coc2cc(O)cc(O)c12` [Genistein], the “concentration” value came out at 20 µM. Further, the activation ratio under setting [2] was 1.47. Further, the activation ratio under setting [3] came to 2.25. Also, the activation ratio under setting [4] turned out to be 3.59. Besides, under setting [6], the activation ratio is 3.05. In addition, the activation ratio (50 μM, dose-response curve) was 1.97. Also, the activation ratio (100 μM, dose-response curve) is recorded as 1.75. Further, under “200 μM, dose-response curve”, the activation ratio came to 1.59.
On to `O=C(Nc1nccs1)c1n[nH]c2ccccc12` [Compound 1, thiazol-2-ylamide compound of 1H-indazole-3-carboxylic acid], for which the activation ratio runs as follows: (0.1 μM, 48 hours after stimulation) 1.28; under setting [1], 3.66; under setting [2], 4.59; under setting [4], 5.52; under setting [5], 3.58; (50 μM, dose-response curve) 2.29. In addition, the activation ratio by setting is: (100 μM, dose-response curve) 0.71; (400 μM, dose-response curve) 0.12.
